Test results from patent US20220041687A1, “A GROUP OF CHIMERIC ANTIGEN RECEPTORS (CARS)” (ST. ANNA KINDERKREBSFORSCHUNG, priority 2018, published 2022).
Like-named read-outs stand apart in the source and are kept apart here.

Assays:
[1] = test system: Jurkat T cells expressing tEGFR; experiment: T cell activation by rcSso7d-based CARs (luciferase-based cytotoxicity assay, IFN-γ ELISA), Example 2; settings: primary human T cells, 4 hours, E:T 2:1; for cytotoxicity: binder fused to "Ser" CAR backbone (monovalent interaction)
Experimental: Luciferase-expressing tumour cells were co-cultured with CAR T cells at an E:T cell ratio of 2:1 with 10,000 target cells/well in white round-bottom 96 well plates (Sigma Aldrich) for 4 hours at 37° C. in cytotoxicity assay medium, consisting of phenol-free RPMI (Thermo Scientific), 10% FCS, 1% L-Glutamine (Thermo Scientific) and 1% penicillin-streptomycin. Finally, remaining living cells were quantified by determination of the residual luciferase activity of the co-culture. After equilibration to room temperature for 10 minutes, luciferin was added to the cell suspension (150 μg/mL final concentration; Perkin Elmer) and luciferase activity was measured 20 minutes later using the ENSPIRE Multimode plate reader. The percentage of specific lysis was determined with the following formula:
% specific lysis=100−((RLU from well with effector and target cell co-culture)/(RLU from well with target cells only)×100)).
Cytokine secretion of primary CAR T cells was assessed by co-cultivation with target cells at E:T ratios of 1:1 or 2:1 in flat-bottom 96 well plates for 4 hours or 24 hours at 37° C. In some experiments, released cytokines were quantified in the supernatants from the co-culture experiments for determining cytotoxicity. The supernatants were centrifuged (1600 rpm, 7 minutes, 4° C.) to remove remaining cells and debris and were subsequently frozen at −80° C. For analysis of secreted IFN-γ, ELISA was performed using the Human IFN gamma ELISA Ready-SET-Go!® kit (eBioscience) according to the manufacturer's instructions. Measurements were conducted using the ENSPIRE Multimode plate reader.

[2] = test system: Jurkat T cells expressing tHER2; experiment: Functional screening of affibody-based CARs, luciferase-based cytotoxicity assay, Example 4; format: cell-based, human; settings: affibody variant in CAR backbone 8ser-BB-FKBP (36V)-3z; 10 nM AP20187 or DMSO; 4 hours, E:T 2:1
Experimental: Luciferase-expressing tumour cells were co-cultured with CAR T cells at an E:T cell ratio of 2:1 with 10,000 target cells/well in white round-bottom 96 well plates (Sigma Aldrich) for 4 hours at 37° C. in cytotoxicity assay medium, consisting of phenol-free RPMI (Thermo Scientific), 10% FCS, 1% L-Glutamine (Thermo Scientific) and 1% penicillin-streptomycin. Finally, remaining living cells were quantified by determination of the residual luciferase activity of the co-culture. After equilibration to room temperature for 10 minutes, luciferin was added to the cell suspension (150 μg/mL final concentration) and luciferase activity was measured 20 minutes later using the ENSPIRE Multimode plate reader. The percentage of specific lysis was calculated with the following formula:
Dimerization of transgenes was induced prior to co-cultivation experiments. […] The homodimerization agent AP20187 was diluted in cell culture medium and was added at 10 nM final concentration. Addition of the vehicle control DMSO at the same concentration served as control. Cells were incubated at 37° C. for 30 minutes to ensure efficient dimerization of transgenes and subsequently used for in vitro experiments.

human EGFR [3] = settings: Traxlmayr et al., J Biol Chem. 2016; cited from earlier work
human EGFR [4] = experiment: Binding affinities of rcSso7d-based antigen binding moieties (titration on tEGFR Jurkat T cells, SPR on hEGFR-Fc); settings: comparison in words; own values only in FIG. 2; read-out: affinity of the binding moiety, stated as comparable to that of scFv 4D5-5
Experimental: Jurkat T cells were engineered to express high levels of the respective tumour antigen. […] After washing in PBS, cells were resuspended in PBS containing 0.1% BSA (Sigma Aldrich) and incubated with varying concentrations of the binder proteins fused to sfGFP in order to determine the affinities of the antigen binding moieties towards the respective tumour antigen. After incubation for 1 hour at 4° C. while shaking, plates were centrifuged (450 g, 7 minutes, 4° C.), the supernatant was discarded and cells were acquired with a BD LSRFortessa. Cells were kept on ice to avoid endocytosis. The Kd was obtained by curve fitting using Microsoft Excel (Microsoft Corporation).
SPR experiments were performed with a Biacore T200 instrument (GE Healthcare). All experiments were conducted in degassed and filtered PBS, pH 7.4, containing 0.1% BSA and 0.05% Tween-20 (Merck Millipore), at 25° C. hEGFR-Fc (R&D) was immobilized on a Protein A sensor chip (GE Healthcare) at a flow rate of 10 μL/min for 60 seconds at a concentration 6.67 μg/mL. To determine the affinity of rcSso7d-based antigen binding moieties, five concentrations (depending on the expected Kd of the antigen binding moiety) of the respective protein were injected at a flow rate of 30 μL/min for 15 seconds in the single-cycle kinetic mode, followed by a dissociation step (30 seconds). […]

Question: With “E11.4.1-G25A: alanine mutant G25A of rcSso7d E11.4.1, EGFR binding moiety” as the substance, how does the cytotoxicity [1] read?
Answer: The cytotoxicity was “triggered potent cytotoxicity also upon monovalent interaction”.

Question: Which “capacity to trigger cytotoxicity in T cells in presence or absence of AP20187” value [2] does the source give for “zHER2-WT: high-affinity HER2 affibody with framework mutations N23A and S33K” here?
Answer: Its value is “triggered efficient target cell lysis independent of presence of AP20187”.

Question: For “rcSso7d E11.4.1: well characterized rcSso7d-based antigen binding moiety which binds to human EGFR (Traxlmayr et al.) [reference compound]”, which cytotoxicity [1] is on record?
Answer: Its cytotoxicity is “triggered potent cytotoxicity also upon monovalent interaction”.

Question: And the Kd (human EGFR [3])?
Answer: The Kd was 0.019 µM.

Question: Which results are given for “E11.4.1-G32A: low affinity alanine mutant G32A of rcSso7d E11.4.1, EGFR binding moiety with the lowest tested affinity”?
Answer: Kd (human EGFR [4]): ~1.1 µM; T cell activation in response to target cells ([1]; binder fused to cysteine-containing CAR backbone ("Cys", bivalent)): efficiently triggered T cell activation; T cell activation in response to target cells ([1]; binder fused to serine-containing CAR backbone ("Ser", monovalent)): did not or only poorly trigger the T cells
